≈ marks a conversion by molar mass, not a printed value.
Assays:
E. coli gyrase = E. coli gyrase (Escherichia coli, UniProt P0AES6); experiment: Gyrase inhibitory assay; type: biochemical
S. aureus (ATCC29213) = experiment: Antibacterial assay; settings: Staphylococcus aureus, ATCC29213, read-out: MIC S. aureus (ATCC29213)
E. coli (ATCC25922) = experiment: Antibacterial assay; settings: Escherichia coli, ATCC25922, read-out: MIC E. coli (ATCC25922)
S. aureus gyrase = S. aureus gyrase (Staphylococcus aureus, UniProt P0A0K8); experiment: Gyrase inhibitory assay; type: biochemical
[1] = tested on: methicillin-resistant S. aureus (ATCC43300); experiment: Mouse model of sepsis induced by MRSA; type: in vivo, ICR mice; settings: 10 mg/kg ig, MRSA ATCC43300, observed 7 days
S. aureus Topo IV = S. aureus Topo IV (Staphylococcus aureus, UniProt P0C1S7); experiment: Topo IV inhibitory assay; type: biochemical

| Compound | IC50 (E. coli gyrase) [µM] | MIC (S. aureus (ATCC29213)) [µg/mL] | MIC (E. coli (ATCC25922)) [µg/mL] | IC50 (S. aureus gyrase) [µM] | IC50 (S. aureus Topo IV) [µM] | protective effect / survival in mouse model of sepsis [1] |
| --- | --- | --- | --- | --- | --- | --- |
| COC(=O)c1ccc(N2CC[C@@H](NC(=O)c3[nH]c(C)c(Cl)c3Cl)[C@@H](OC)C2)nc1 [Compound 11, Methyl 6-((3S,4R)-4-(3,4-dichloro-5-methyl-1H-pyrrole-2-carboxamido)-3-methoxy-piperidin-1-yl)nicotinate] | > 10 | 1 (≈ 2.27 µM) | > 128 | 3.35 ± 0.154 | – | – |
| CCOC(=O)c1cnc(N2CC[C@@H](NC(=O)c3[nH]c(C)c(Cl)c3Cl)[C@@H](OC)C2)nc1 [Compound 12, Ethyl 2-((3S,4R)-4-(3,4-dichloro-5-methyl-1H-pyrrole-2-carboxamido)-3-methoxy-piperidin-1-yl)pyrimidine-5-carboxylate] | > 10 | 0.125 (≈ 0.274 µM) | > 128 | 4.87 ± 0.02 | – | – |
| COC(=O)c1cnc(N2CC[C@@H](NC(=O)c3[nH]c(C)c(Cl)c3Cl)[C@@H](OC)C2)cn1 [Compound 13, Methyl-5-((3S,4R)-4-(3,4-dichloro-5-methyl-1H-pyrrole-2-carboxamido)-3-methoxypiperidin-1-yl)pyrazine-2-carboxylate] | > 10 | > 128 | > 128 | > 10 | – | – |
| CCOC(=O)c1nnc(N2CC[C@@H](NC(=O)c3[nH]c(C)c(Cl)c3Cl)[C@@H](OC)C2)o1 [Compound 16, Ethyl-5-((3S,4R)-4-(3,4-dichloro-5-methyl-1H-pyrrole-2-carboxamido)-3-methoxypiperidin-1-yl)-1,3,4-oxadiazole-2-carboxylate] | > 10 | 0.5 (≈ 1.12 µM) | 128 (≈ 287 µM) | 2.34 | – | – |
| CO[C@H]1CN(c2ccc(/C(C)=N/O)nn2)CC[C@H]1NC(=O)c1[nH]c(C)c(Cl)c1Cl [Compound 23, 3,4-Dichloro-N-((3S,4R)-1-(6-((E)-1-(hydroxyimino)ethyl)pyridazin-3-yl)-3-methoxypiperidin-4-yl)-5-methyl-1H-pyrrole-2-carboxamide] | 2.56 | ≤ 0.015 | 1 (≈ 2.27 µM) | 1.49 ± 0.234 | – | weak protective effects |
| CO[C@H]1CN(c2ccc(C(=O)NCCN)nn2)CC[C@H]1NC(=O)c1[nH]c(C)c(Cl)c1Cl [Compound 32, N-(2-Aminoethyl)-6-((3S,4R)-4-(3,4-dichloro-5-methyl-1H-pyrrole-2-carboxamido)-3-methoxypiperidin-1-yl)pyridazine-3-carboxamide] | > 10 | 32 (≈ 68 µM) | 64 (≈ 136 µM) | > 10 | – | – |
| CO[C@H]1CN(c2ccc(CN)nn2)CC[C@H]1NC(=O)c1[nH]c(C)c(Cl)c1Cl [Compound 34, N-((3S,4R)-1-(6-(Aminomethyl)pyridazin-3-yl)-3-methoxypiperidin-4-yl)-3,4-dichloro-5-methyl-1H-pyrrole-2-carboxamide] | > 10 | 32 (≈ 77.4 µM) | > 128 | > 10 | – | – |
| CO[C@H]1CN(c2ccc(C(=N)N)nn2)CC[C@H]1NC(=O)c1[nH]c(C)c(Cl)c1Cl [Compound 35, N-((3S,4R)-1-(6-Carbamimidoylpyridazin-3-yl)-3-methoxypiperidin-4-yl)-3,4-dichloro-5-methyl-1H-pyrrole-2-carboxamide] | > 10 | 32 (≈ 75.1 µM) | > 128 | > 10 | – | – |
| CO[C@H]1CN(c2ccc(-c3nn[nH]n3)nn2)CC[C@H]1NC(=O)c1[nH]c(C)c(Cl)c1Cl [Compound 36, N-((3S,4R)-1-(6-(2H-Tetrazol-5-yl)pyridazin-3-yl)-3-methoxypiperidin-4-yl)-3,4-dichloro-5-methyl-1H-pyrrole-2-carboxamide] | > 10 | 0.5 (≈ 1.11 µM) | 16 (≈ 35.4 µM) | > 10 | – | – |
| CO[C@@H]1[C@@H](OC(N)=O)[C@@H](O)[C@H](Oc2ccc3c(O)c(NC(=O)c4ccc(O)c(CC=C(C)C)c4)c(=O)oc3c2C)OC1(C)C [novobiocin (1), novobiocin, reference compound] | – | 0.5 (≈ 0.816 µM) | 128 (≈ 209 µM) | – | 0.383 ± 0.12 | – |

Now from value to molecule, other results behind:

| IC50 (E. coli gyrase) [µM] | MIC (S. aureus (ATCC29213)) [µg/mL] | MIC (E. coli (ATCC25922)) [µg/mL] | IC50 (S. aureus gyrase) [µM] | IC50 (S. aureus Topo IV) [µM] | Compound | protective effect / survival in mouse model of sepsis [1] |
| --- | --- | --- | --- | --- | --- | --- |
| > 10 | 0.125 (≈ 0.279 µM) | > 128 | 1.45 ± 0.111 | – | COC(=O)c1cnc(N2CC[C@@H](NC(=O)c3[nH]c(C)c(Cl)c3Cl)[C@@H](OC)C2)s1 [Compound 9, Methyl 2-((3S,4R)-4-(3,4-dichloro-5-methyl-1H-pyrrole-2-carboxamido)-3-methoxypiperidin-1-yl)thiazole-5-carboxylate] | – |
| 6.87 ± 1.22 | 0.125 (≈ 0.27 µM) | 16 (≈ 34.6 µM) | 0.137 ± 0.013 | – | CCOC(=O)c1nnc(N2CC[C@@H](NC(=O)c3[nH]c(C)c(Cl)c3Cl)[C@@H](OC)C2)s1 [Compound 10, Ethyl 5-((3S,4R)-4-(3,4-dichloro-5-methyl-1H-pyrrole-2-carboxamido)-3-methoxy-piperidin-1-yl)-1,3,4-thiadiazole-2-carboxylate] | – |
| 8.21 ± 1.21 | 0.25 (≈ 0.621 µM) | 16 (≈ 39.8 µM) | 0.084 ± 0.037 | – | CO[C@H]1CN(c2ccc(F)nn2)CC[C@H]1NC(=O)c1[nH]c(C)c(Cl)c1Cl [Compound 17, 3,4-Dichloro-N-((3S,4R)-1-(6-fluoropyridazin-3-yl)-3-methoxypiperidin-4-yl)-5-methyl-1H-pyrrole-2-carboxamide] | – |
| 7.42 ± 1.01 | 0.03 (≈ 0.0648 µM) | 4 (≈ 8.64 µM) | 0.13 ± 0.017 | – | CO[C@H]1CN(c2ccc(Br)nn2)CC[C@H]1NC(=O)c1[nH]c(C)c(Cl)c1Cl [Compound 18, N-((3S,4R)-1-(6-Bromopyridazin-3-yl)-3-methoxypiperidin-4-yl)-3,4-dichloro-5-methyl-1H-pyrrole-2-carboxamide] | – |
| 9.31 ± 0.923 | 0.03 (≈ 0.0663 µM) | 16 (≈ 35.4 µM) | 0.12 ± 0.047 | – | CO[C@H]1CN(c2ccc(C(F)(F)F)nn2)CC[C@H]1NC(=O)c1[nH]c(C)c(Cl)c1Cl [Compound 19, 3,4-Dichloro-N-((3S,4R)-3-methoxy-1-(6-(trifluoromethyl)pyridazin-3-yl)piperidin-4-yl)-5-methyl-1H-pyrrole-2-carboxamide] | – |
| > 10 | 0.06 (≈ 0.147 µM) | > 128 | 0.701 ± 0.248 | – | CO[C@H]1CN(c2ccc(C#N)nn2)CC[C@H]1NC(=O)c1[nH]c(C)c(Cl)c1Cl [Compound 20, 3,4-Dichloro-N-((3S,4R)-1-(6-cyanopyridazin-3-yl)-3-methoxypiperidin-4-yl)-5-methyl-1H-pyrrole-2-carboxamide] | – |
| > 10 | 0.06 (≈ 0.141 µM) | > 128 | 0.825 ± 0.303 | – | CO[C@H]1CN(c2ccc(C(C)=O)nn2)CC[C@H]1NC(=O)c1[nH]c(C)c(Cl)c1Cl [Compound 21, N-((3S,4R)-1-(6-Acetylpyridazin-3-yl)-3-methoxypiperidin-4-yl)-3,4-dichloro-5-methyl-1H-pyrrole-2-carboxamide] | – |
| > 10 | 0.03 (≈ 0.0659 µM) | > 128 | 2.07 ± 0.568 | – | CO/N=C(\C)c1ccc(N2CC[C@@H](NC(=O)c3[nH]c(C)c(Cl)c3Cl)[C@@H](OC)C2)nn1 [Compound 24, 3,4-Dichloro-N-((3S,4R)-3-methoxy-1-(6-((E)-1-(methoxyimino)ethyl)pyridazin-3-yl)piperidin-4-yl)-5-methyl-1H-pyrrole-2-carboxamide] | – |
| > 10 | 0.25 (≈ 0.501 µM) | > 128 | 0.172 ± 0.056 | – | CO[C@H]1CN(c2ccc(/C(C)=N/OCC(=O)O)nn2)CC[C@H]1NC(=O)c1[nH]c(C)c(Cl)c1Cl [Compound 25, 2-((((E)-1-(6-((3S,4R)-4-(3,4-Dichloro-5-methyl-1H-pyrrole-2-carboxamido)-3-methoxypiperidin-1-yl)pyridazine-3-yl)ethylidene)amino)oxy)acetic acid] | – |
| 5.11 ± 0.545 | 0.03 (≈ 0.0724 µM) | 4 (≈ 9.66 µM) | 0.094 ± 0.04 | – | CO[C@H]1CN(c2ccc(CO)nn2)CC[C@H]1NC(=O)c1[nH]c(C)c(Cl)c1Cl [Compound 27, 3,4-Dichloro-N-((3S,4R)-1-(6-(hydroxymethyl)pyridazin-3-yl)-3-methoxypiperidin-4-yl)-5-methyl-1H-pyrrole-2-carboxamide] | – |
| > 10 | 0.125 (≈ 0.283 µM) | 16 (≈ 36.3 µM) | 0.696 ± 0.056 | – | CNC(=O)c1ccc(N2CC[C@@H](NC(=O)c3[nH]c(C)c(Cl)c3Cl)[C@@H](OC)C2)nn1 [Compound 30, 6-((3S,4R)-4-(3,4-Dichloro-5-methyl-1H-pyrrole-2-carboxamido)-3-methoxypiperidin-1-yl)-N-methylpyridazine-3-carboxamide] | – |
| > 10 | 0.125 (≈ 0.275 µM) | > 128 | 0.576 ± 0.045 | – | CCNC(=O)c1ccc(N2CC[C@@H](NC(=O)c3[nH]c(C)c(Cl)c3Cl)[C@@H](OC)C2)nn1 [Compound 31, 6-((3S,4R)-4-(3,4-Dichloro-5-methyl-1H-pyrrole-2-carboxamido)-3-methoxypiperidin-1-yl)-N-ethylpyridazine-3-carboxamide] | – |
| > 10 | 0.25 (≈ 0.504 µM) | 32 (≈ 64.5 µM) | 1.09 ± 0.146 | – | CO[C@H]1CN(c2ccc(C(=O)N3CCNCC3)nn2)CC[C@H]1NC(=O)c1[nH]c(C)c(Cl)c1Cl [Compound 33, 3,4-Dichloro-N-((3S,4R)-3-methoxy-1-(6-(piperazine-1-carbonyl)pyridazin-3-yl)piperidin-4-yl)-5-methyl-1H-pyrrole-2-carboxamide] | – |

— article PMC10692473 (Acta Pharmaceutica Sinica. B, 2023)
